Reference: ChEMBL document CHEMBL4507291 (2021)

Assays:
[1] = molecular target: Mu-type opioid receptor (Homo sapiens) (UniProt P35372); conditions: Compound concentration 10.0 uM
[2] = molecular target: Fibroblast growth factor receptor 2 (Homo sapiens) (UniProt P21802); assay: FGFR2 Kinase screen; conditions: Compound concentration 1.0 uM
[3] = molecular target: Misshapen-like kinase 1 (Homo sapiens) (UniProt Q8N4C8); assay: MINK1 Kinase screen; conditions: Compound concentration 1.0 uM
[4] = molecular target: Muscarinic acetylcholine receptor M3 (Homo sapiens) (UniProt P20309); conditions: Compound concentration 10.0 uM
[5] = molecular target: T1, Serine/threonine-protein kinase Sgk1 (Homo sapiens) (UniProt O00141); assay: SGK (SGK1) Kinase screen; conditions: Compound concentration 1.0 uM
T1 sequence (whole entry): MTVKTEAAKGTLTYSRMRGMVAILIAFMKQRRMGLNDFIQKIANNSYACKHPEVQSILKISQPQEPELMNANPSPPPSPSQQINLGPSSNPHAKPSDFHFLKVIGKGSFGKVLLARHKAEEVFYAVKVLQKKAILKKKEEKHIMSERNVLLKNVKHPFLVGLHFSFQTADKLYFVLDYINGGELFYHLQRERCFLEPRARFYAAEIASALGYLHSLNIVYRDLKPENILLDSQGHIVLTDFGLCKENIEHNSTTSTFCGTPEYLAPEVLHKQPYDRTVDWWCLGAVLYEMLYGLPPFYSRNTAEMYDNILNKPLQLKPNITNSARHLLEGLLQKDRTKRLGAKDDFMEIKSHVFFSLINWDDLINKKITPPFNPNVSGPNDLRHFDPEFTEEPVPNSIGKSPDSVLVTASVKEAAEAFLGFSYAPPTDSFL

[6] = molecular target: LIM domain kinase 2 (Homo sapiens) (UniProt P53671); assay: LIMK2 Kinase screen; conditions: Compound concentration 1.0 uM
[7] = molecular target: T2, Tyrosine-protein kinase receptor TYRO3 (Homo sapiens) (UniProt Q06418); assay: TYRO3 (RSE) Kinase screen; conditions: Compound concentration 1.0 uM
T2 sequence (whole entry): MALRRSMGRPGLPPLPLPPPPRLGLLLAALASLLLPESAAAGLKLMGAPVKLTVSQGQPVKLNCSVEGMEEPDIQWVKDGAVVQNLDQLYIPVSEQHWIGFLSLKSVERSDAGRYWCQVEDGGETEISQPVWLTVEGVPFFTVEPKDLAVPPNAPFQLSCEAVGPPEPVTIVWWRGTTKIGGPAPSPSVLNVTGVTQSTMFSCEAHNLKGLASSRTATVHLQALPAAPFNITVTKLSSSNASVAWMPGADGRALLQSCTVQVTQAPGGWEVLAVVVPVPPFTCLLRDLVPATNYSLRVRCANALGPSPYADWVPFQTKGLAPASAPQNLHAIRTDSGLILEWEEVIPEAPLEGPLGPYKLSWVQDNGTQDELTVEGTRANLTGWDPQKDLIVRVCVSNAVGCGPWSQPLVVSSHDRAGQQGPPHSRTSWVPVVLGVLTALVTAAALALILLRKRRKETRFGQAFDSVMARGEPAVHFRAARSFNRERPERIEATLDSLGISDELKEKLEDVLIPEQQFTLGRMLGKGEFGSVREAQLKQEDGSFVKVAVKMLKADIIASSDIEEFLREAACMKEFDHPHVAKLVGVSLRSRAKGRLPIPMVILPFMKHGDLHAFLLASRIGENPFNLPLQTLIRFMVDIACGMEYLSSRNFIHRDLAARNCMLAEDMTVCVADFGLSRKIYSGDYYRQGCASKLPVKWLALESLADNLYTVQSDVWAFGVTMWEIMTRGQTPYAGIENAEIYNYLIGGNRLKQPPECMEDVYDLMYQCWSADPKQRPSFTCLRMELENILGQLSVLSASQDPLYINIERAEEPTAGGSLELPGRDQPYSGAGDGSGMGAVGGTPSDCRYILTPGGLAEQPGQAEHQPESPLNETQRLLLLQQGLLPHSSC

[8] = molecular target: Protein kinase C delta type (Homo sapiens) (UniProt Q05655); assay: PRKCD (PKC delta) Kinase screen; conditions: Compound concentration 1.0 uM
Chain of Protein kinase C delta type (Homo sapiens) (Q05655 whole entry, looked up): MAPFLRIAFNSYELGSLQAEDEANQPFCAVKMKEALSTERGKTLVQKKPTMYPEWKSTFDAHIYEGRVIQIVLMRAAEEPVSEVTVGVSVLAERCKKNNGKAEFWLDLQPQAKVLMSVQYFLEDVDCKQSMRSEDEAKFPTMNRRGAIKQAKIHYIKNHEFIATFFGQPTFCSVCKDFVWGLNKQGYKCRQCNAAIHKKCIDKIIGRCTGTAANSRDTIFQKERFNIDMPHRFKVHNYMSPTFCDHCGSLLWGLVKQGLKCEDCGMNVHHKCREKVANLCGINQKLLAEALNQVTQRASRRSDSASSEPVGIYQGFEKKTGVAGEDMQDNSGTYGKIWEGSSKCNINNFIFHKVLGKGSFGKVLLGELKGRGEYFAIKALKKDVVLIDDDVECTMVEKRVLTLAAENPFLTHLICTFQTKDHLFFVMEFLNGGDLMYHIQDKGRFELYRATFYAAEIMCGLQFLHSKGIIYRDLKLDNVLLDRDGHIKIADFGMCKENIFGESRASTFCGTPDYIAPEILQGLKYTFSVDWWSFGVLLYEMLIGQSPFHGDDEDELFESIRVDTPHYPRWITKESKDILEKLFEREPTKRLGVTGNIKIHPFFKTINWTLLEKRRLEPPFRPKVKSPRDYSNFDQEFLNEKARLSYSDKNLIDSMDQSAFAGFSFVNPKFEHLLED

[9] = molecular target: Cathepsin G (Homo sapiens) (UniProt P08311); assay: Inhibition of Peptidase, CTSG (Cathepsin G) at 10 µM in the Eurofins-Panlabs enzyme assay (Eurofins_assay_112510); set-up: substrate with concentration; conditions: Compound concentration 10.0 uM
[10] = molecular target: Serine/threonine-protein kinase pim-2 (Homo sapiens) (UniProt Q9P1W9); assay: PIM2 Kinase screen; conditions: Compound concentration 1.0 uM
[11] = molecular target: Platelet-activating factor receptor (Homo sapiens) (UniProt P25105); assay: Inhibition of Platelet Activating Factor (PAF) at 10 µM in the Eurofins-Panlabs radioligand binding assay (Eurofins_assay_265010); conditions: Compound concentration 10.0 uM
Chain of Platelet-activating factor receptor (Homo sapiens) (P25105 whole entry): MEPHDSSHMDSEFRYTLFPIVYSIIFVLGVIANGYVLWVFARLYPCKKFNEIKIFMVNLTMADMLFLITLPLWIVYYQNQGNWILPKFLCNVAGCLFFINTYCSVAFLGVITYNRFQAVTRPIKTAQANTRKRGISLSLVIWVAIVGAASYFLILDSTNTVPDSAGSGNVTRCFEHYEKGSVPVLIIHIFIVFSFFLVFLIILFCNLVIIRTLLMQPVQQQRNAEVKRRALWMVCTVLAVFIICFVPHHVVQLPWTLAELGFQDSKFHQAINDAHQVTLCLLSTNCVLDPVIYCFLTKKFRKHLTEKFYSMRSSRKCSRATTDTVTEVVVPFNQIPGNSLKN

[12] = molecular target: Protein kinase C eta type (Homo sapiens) (UniProt P24723); assay: PRKCH (PKC eta) Kinase screen; conditions: Compound concentration 1.0 uM
Chain of Protein kinase C eta type (Homo sapiens) (P24723 whole entry): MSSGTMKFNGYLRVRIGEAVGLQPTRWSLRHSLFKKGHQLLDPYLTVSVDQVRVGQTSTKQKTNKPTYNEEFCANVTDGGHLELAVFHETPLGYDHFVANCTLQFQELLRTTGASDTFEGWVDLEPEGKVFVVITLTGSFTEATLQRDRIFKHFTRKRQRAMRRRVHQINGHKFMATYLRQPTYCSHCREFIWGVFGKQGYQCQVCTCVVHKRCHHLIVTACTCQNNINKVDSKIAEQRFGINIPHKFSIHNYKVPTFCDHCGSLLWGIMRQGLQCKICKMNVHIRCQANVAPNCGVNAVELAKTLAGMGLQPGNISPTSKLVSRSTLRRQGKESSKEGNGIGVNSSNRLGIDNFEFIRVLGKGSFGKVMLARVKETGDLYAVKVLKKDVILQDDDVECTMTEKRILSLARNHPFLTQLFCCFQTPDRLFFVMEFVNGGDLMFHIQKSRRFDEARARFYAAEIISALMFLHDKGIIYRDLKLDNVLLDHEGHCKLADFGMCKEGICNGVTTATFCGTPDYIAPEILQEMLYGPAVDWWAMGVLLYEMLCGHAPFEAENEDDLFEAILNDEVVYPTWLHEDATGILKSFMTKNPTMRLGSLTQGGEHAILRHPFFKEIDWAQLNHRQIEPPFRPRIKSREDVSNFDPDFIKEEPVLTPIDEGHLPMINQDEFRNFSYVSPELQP

[13] = molecular target: Glutamate NMDA receptor (Rattus norvegicus) (UniProt P35439+Q00959+Q00960+Q00961+Q62645+Q8VHN2+Q9R1M7); conditions: Compound concentration 10.0 uM
[14] = molecular target: Myosin light chain kinase, smooth muscle (Homo sapiens) (UniProt Q15746); assay: MYLK (MLCK) Kinase screen; conditions: Compound concentration 1.0 uM
[15] = molecular target: Epithelial discoidin domain-containing receptor 1 (Homo sapiens) (UniProt Q08345); assay: DDR1 Kinase screen; conditions: Compound concentration 1.0 uM
[16] = molecular target: Mitogen-activated protein kinase kinase kinase 11 (Homo sapiens) (UniProt Q16584); assay: MAP3K11 (MLK3) Kinase screen; conditions: Compound concentration 1.0 uM
[17] = molecular target: MAO-B (amine oxidase [flavin-containing] B) (Homo sapiens, UniProt P27338); assay: Inhibition of Monoamine Oxidase MAO-B at compound concentration of 10.0 uM in the Eurofins-Panlabs enzyme assay (Eurofins_assay_140120); set-up: substrate with concentration 50 uM Kynuramine, incubation time 60 min, incubation temperature 37 C; conditions: recombinant human MAO-B expressed in insect Hi5 cells, probe kynuramine (50 uM), compound concentration 10 uM
[18] = molecular target: Fibroblast growth factor receptor 4 (Homo sapiens) (UniProt P22455); assay: FGFR4 Kinase screen; conditions: Compound concentration 1.0 uM
Chain of Fibroblast growth factor receptor 4 (Homo sapiens) (P22455 22-802 limits assumed): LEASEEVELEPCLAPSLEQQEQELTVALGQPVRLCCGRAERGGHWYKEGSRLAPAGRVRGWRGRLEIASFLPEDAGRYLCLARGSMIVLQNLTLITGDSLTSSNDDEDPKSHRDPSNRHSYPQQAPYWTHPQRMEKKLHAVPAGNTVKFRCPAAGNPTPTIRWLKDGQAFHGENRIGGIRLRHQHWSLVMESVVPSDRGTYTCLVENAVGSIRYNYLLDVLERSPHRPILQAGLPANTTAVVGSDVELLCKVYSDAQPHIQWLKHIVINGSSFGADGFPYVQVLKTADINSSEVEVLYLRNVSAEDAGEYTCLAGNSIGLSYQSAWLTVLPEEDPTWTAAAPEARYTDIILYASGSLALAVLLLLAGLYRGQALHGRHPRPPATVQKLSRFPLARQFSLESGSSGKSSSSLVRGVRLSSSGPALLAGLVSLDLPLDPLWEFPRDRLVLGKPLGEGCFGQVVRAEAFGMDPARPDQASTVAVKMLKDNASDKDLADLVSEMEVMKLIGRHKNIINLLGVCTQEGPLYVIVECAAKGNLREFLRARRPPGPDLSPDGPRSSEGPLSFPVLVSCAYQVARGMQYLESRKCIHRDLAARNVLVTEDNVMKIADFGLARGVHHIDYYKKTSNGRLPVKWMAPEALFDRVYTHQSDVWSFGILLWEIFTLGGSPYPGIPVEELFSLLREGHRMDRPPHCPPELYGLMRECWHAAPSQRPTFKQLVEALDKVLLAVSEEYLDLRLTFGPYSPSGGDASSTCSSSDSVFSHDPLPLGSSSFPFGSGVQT

[19] = molecular target: Progesterone receptor (Homo sapiens) (UniProt P06401); assay: Inhibition of Progesterone PR-B at 10 µM in the Eurofins-Panlabs radioligand binding assay (Eurofins_assay_268020); set-up: ligand concentration 1.4 nM; conditions: Compound concentration 10.0 uM
[20] = molecular target: Acetylcholinesterase (Homo sapiens) (UniProt P22303); conditions: Compound concentration 10.0 uM
Chain of Acetylcholinesterase (Homo sapiens) (P22303 whole entry): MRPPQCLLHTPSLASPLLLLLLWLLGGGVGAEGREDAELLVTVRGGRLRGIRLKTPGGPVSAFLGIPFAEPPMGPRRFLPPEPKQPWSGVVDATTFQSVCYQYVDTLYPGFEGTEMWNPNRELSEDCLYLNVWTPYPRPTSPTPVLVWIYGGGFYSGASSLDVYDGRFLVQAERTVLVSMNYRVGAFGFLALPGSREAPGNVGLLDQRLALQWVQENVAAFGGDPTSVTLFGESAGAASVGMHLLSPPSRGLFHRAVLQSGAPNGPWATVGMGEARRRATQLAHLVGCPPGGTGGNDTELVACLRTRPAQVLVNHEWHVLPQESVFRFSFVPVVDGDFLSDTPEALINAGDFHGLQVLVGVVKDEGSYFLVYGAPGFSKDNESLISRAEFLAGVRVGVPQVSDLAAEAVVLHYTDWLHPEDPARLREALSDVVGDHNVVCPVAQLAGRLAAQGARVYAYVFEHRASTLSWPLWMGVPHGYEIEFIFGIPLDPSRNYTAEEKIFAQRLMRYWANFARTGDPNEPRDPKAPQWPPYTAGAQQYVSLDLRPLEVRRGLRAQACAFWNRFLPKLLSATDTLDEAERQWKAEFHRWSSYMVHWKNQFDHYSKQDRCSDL

[21] = molecular target: 5-hydroxytryptamine receptor 6 (Homo sapiens) (UniProt P50406); assay: Inhibition of Serotonin (5-Hydroxytryptamine) 5-HT6 at 10 µM in the Eurofins-Panlabs radioligand binding assay (Eurofins_assay_272200); conditions: Compound concentration 10.0 uM
Chain of 5-hydroxytryptamine receptor 6 (Homo sapiens) (P50406 whole entry): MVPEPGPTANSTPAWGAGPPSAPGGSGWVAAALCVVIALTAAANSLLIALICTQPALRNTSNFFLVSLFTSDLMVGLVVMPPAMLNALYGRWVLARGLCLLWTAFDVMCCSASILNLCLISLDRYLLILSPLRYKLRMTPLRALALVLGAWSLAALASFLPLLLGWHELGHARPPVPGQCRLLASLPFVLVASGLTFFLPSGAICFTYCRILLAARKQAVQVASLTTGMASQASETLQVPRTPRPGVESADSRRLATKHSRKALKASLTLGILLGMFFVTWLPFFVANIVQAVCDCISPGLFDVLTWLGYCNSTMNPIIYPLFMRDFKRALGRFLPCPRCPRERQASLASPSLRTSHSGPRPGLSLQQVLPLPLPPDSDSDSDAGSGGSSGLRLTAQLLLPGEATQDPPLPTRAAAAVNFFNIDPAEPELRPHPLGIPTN

[22] = molecular target: Serine/threonine-protein kinase 33 (Homo sapiens) (UniProt Q9BYT3); assay: STK33 Kinase screen; conditions: Compound concentration 1.0 uM
Chain of Serine/threonine-protein kinase 33 (Homo sapiens) (Q9BYT3 whole entry, looked up): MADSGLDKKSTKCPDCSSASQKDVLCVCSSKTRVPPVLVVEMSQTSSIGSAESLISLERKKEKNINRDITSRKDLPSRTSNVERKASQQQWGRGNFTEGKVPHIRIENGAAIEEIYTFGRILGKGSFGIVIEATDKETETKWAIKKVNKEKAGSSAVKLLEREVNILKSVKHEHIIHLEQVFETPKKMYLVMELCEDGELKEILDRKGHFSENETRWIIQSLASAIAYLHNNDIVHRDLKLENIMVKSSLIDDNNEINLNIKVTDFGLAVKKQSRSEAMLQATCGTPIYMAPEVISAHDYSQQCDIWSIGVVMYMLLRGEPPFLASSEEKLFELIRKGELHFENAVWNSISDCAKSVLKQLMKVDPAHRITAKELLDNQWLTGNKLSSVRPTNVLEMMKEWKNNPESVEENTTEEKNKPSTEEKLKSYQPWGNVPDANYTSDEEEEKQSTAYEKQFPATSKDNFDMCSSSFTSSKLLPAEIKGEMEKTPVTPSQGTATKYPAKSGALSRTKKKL

Chain of Fibroblast growth factor receptor 2 (Homo sapiens) (P21802 22-821 limits assumed): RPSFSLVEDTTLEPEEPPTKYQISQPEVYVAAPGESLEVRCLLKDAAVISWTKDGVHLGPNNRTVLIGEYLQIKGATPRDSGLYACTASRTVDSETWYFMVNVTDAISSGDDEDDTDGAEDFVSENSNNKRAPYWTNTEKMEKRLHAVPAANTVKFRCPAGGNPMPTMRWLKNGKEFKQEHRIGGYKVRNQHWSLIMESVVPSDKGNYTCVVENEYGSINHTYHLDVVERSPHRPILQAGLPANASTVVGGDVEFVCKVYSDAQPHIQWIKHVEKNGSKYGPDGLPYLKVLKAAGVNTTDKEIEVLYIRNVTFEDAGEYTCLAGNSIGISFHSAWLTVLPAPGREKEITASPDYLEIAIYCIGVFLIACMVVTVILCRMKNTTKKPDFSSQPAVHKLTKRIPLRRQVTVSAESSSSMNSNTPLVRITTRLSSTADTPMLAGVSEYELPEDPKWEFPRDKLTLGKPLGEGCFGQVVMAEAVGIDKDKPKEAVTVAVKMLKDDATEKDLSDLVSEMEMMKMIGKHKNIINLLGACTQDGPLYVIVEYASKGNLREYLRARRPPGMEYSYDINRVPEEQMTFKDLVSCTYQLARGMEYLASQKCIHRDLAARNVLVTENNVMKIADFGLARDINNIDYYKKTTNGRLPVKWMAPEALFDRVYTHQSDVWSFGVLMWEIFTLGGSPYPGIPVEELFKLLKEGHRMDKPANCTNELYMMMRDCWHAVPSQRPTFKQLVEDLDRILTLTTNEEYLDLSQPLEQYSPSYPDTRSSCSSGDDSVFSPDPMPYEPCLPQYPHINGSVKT

C[C@@H]1CN(c2cc(-c3nn(C)c4ccc(OC5(C)CC5)cc34)ncn2)C[C@H](C)O1 [MLi-2-NC]
inhibition [1]: 13.2%

C[C@@H]1CN(c2cc(-c3n[nH]c4ccc(OC5(C)CC5)cc34)ncn2)C[C@H](C)O1 [MLi-2]
inhibition [2]: -3.35%
inhibition [3]: 4.58%
inhibition [4]: 26%
inhibition [5]: -1.63%
inhibition [6]: 0.642%
inhibition [7]: 6.06%
inhibition [8]: 3.65%
inhibition [9]: 9%
inhibition [10]: -1.94%
inhibition [11]: 33%
inhibition [12]: 6.4%
inhibition [13]: 5%
inhibition [14]: 10.9%
inhibition [15]: 0.893%
inhibition [16]: -3.69%
inhibition at 60 min, 10 µM [17]: 28% (not active)
inhibition [18]: 14.8%
inhibition [19]: 30%
inhibition [20]: -2%
inhibition [21]: 3%
inhibition [22]: 24.3%
